Results from PubChem BioAssay AID258 (DTP/NCI, 2004).
Where “and” joins values, the source holds several entries; their conditions need not be identical. Equal entries are not always repeated. Inconclusive results and toxic doses are left out.

Tested on: CD2F1 mice, L1210 leukemia sc, survival T/C
Assay: NCI In Vivo Anticancer Drug Screen. Data for tumor model L1210 Leukemia (subcutaneous) in CD2F1 (CDF1) mice
Settings: endpoint: median survival time, higher = longer survival
Method in brief: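 Mice with transplanted tumor dosed; survival/tumor size read; T/C vs vehicle controls.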

[1] = dose: 108.0 mg/kg/injection, schedule: Q01DX Z (sc), vehicle: methylcellulose (MC)
[2] = dose: 180.0 mg/kg/injection, schedule: Q01DX Z (sc), vehicle: methylcellulose (MC)
[3] = dose: 14.0 mg/kg/injection, schedule: Q01DX Z (sc), vehicle: water
[4] = dose: 23.0 mg/kg/injection, schedule: Q01DX Z (sc), vehicle: water

`CCn1cnc2c(SC)ncnc21` was tested, and the T/C (dose: 65.0 mg/kg/injection, schedule: Q01DX Z (sc), vehicle: methylcellulose (MC)) was 100 % of control, the T/C [1] was 100 % of control and the T/C [2] was 100 % of control.
For `O=C(Nc1nncs1)c1cccs1`, the T/C (dose: 50.0 mg/kg/injection, schedule: Q01DX009 (ip), vehicle: saline with Tween-80) was 99 % of control, the T/C (dose: 100.0 mg/kg/injection, schedule: Q01DX009 (ip), vehicle: saline with Tween-80) was 95 % of control and the T/C (dose: 200.0 mg/kg/injection, schedule: Q01DX009 (ip), vehicle: saline with Tween-80) was 100 % of control. For the same compound, the T/C (dose: 400.0 mg/kg/injection, schedule: Q01DX009 (ip), vehicle: saline with Tween-80) was 100 % of control and the T/C (dose: 800.0 mg/kg/injection, schedule: Q01DX009 (ip), vehicle: saline with Tween-80) was 121 % of control.
In the case of `Clc1ccc(CSc2ncnc3nc[nH]c23)cc1`, the T/C (dose: 38.9 mg/kg/injection, schedule: Q01DX Z (sc), vehicle: methylcellulose (MC)) is reported as 100 % of control, the T/C (dose: 64.8 mg/kg/injection, schedule: Q01DX Z (sc), vehicle: methylcellulose (MC)) is reported as 100 % of control and the T/C [1] is reported as 100 % of control. The T/C [2] was 100 % of control, the T/C (dose: 300.0 mg/kg/injection, schedule: Q01DX Z (sc), vehicle: methylcellulose (MC)) was 100 % of control and the T/C (dose: 500.0 mg/kg/injection, schedule: Q01DX Z (sc), vehicle: methylcellulose (MC)) was 104 % of control.
In the case of `CS(=O)(=O)OCCCCCCCCCOS(C)(=O)=O`, the T/C (dose: 47.0 mg/kg/injection, schedule: Q01DX Z (sc), vehicle: carboxymethylcellulose (CMC)) is reported as 112 % of control.
In the case of `CCOC(=O)NP(=O)(N1CC1)N1CC1`, the T/C [3] is reported as 172 % of control and the T/C [4] is reported as 161 % of control.
`CSCS(=O)C[C@H](CO)NC(=O)/C=C/c1c(C)[nH]c(=O)[nH]c1=O` (some centres not stated) was tested, and the T/C (dose: 1.08 mg/kg/injection, schedule: Q01DX Z (sc), vehicle: saline) was 110 % of control, the T/C (dose: 1.8 mg/kg/injection, schedule: Q01DX Z (sc), vehicle: saline) was 110 % of control and the T/C (dose: 3.0 mg/kg/injection, schedule: Q01DX Z (sc), vehicle: saline) was 100 % of control. For the same compound, the T/C (dose: 5.0 mg/kg/injection, schedule: Q01DX Z (sc), vehicle: saline) was 90 % of control.
With `CN(C)c1ccc(/C=C2\C=Cc3ccccc32)cc1` the T/C (dose: 39.0 mg/kg/injection, schedule: Q01DX Z (sc), vehicle: carboxymethylcellulose (CMC)) was 100 % of control, the T/C (dose: 65.0 mg/kg/injection, schedule: Q01DX Z (sc), vehicle: carboxymethylcellulose (CMC)) was 100 % of control and the T/C (dose: 108.0 mg/kg/injection, schedule: Q01DX Z (sc), vehicle: carboxymethylcellulose (CMC)) was 100 % of control. The T/C (dose: 180.0 mg/kg/injection, schedule: Q01DX Z (sc), vehicle: carboxymethylcellulose (CMC)) was 100 % of control and the T/C (dose: 300.0 mg/kg/injection, schedule: Q01DX Z (sc), vehicle: carboxymethylcellulose (CMC)) was 100 % of control.
`O=C(Nc1ccc(NC2=NCCN2)cc1)c1cccc(C(=O)Nc2ccc(NC3=NCCN3)cc2)c1` was tested, and the T/C (dose: 8.4 mg/kg/injection, schedule: Q01DX Z (sc), vehicle: water) was 110 % of control, the T/C [3] was 100 % of control and the T/C [4] was 105 % of control. For the same compound, the T/C (dose: 39.0 mg/kg/injection, schedule: Q01DX Z (sc), vehicle: water) was 110 % of control.
With `Nc1nncs1` the T/C (dose: 39.0 mg/kg/injection, schedule: Q02DX005 (sc), vehicle: water) was 100 % of control and 103 % of control, the T/C (dose: 65.0 mg/kg/injection, schedule: Q02DX005 (sc), vehicle: water) was 100 % of control and 102 % of control and the T/C (dose: 108.0 mg/kg/injection, schedule: Q02DX005 (sc), vehicle: water) was 100 % of control and 106 % of control. The T/C (dose: 180.0 mg/kg/injection, schedule: Q02DX005 (sc), vehicle: water) was 122 % of control, the T/C (dose: 300.0 mg/kg/injection, schedule: Q02DX005 (sc), vehicle: water) was 166 % of control and 180 % of control and the T/C (dose: 300.0 mg/kg/injection, schedule: Q04DX003 (sc), vehicle: saline) was 100 % of control and 104 % of control. The T/C (dose: 500.0 mg/kg/injection, schedule: Q02DX005 (sc), vehicle: water) was 172 % of control and 180 % of control, the T/C (dose: 500.0 mg/kg/injection, schedule: Q04DX003 (sc), vehicle: saline) was 105 % of control and 112 % of control and the T/C (dose: 833.0 mg/kg/injection, schedule: Q04DX003 (sc), vehicle: saline) was 116 % of control and 124 % of control. For the same compound, the T/C (dose: 1388.0 mg/kg/injection, schedule: Q04DX003 (sc), vehicle: saline) was 154 % of control.
In the case of `CCOC(=O)c1c[nH]c2oc(/C=N/N3CC(CN4CCOCC4)OC3=O)cc2c1=O` (configuration not stated), the T/C (dose: 25.0 mg/kg/injection, schedule: Q01DX009 (ip), vehicle: acid diluted with saline) is reported as 101 % of control, the T/C (dose: 50.0 mg/kg/injection, schedule: Q01DX009 (ip), vehicle: acid diluted with saline) is reported as 109 % of control and the T/C (dose: 50.0 mg/kg/injection, schedule: Q01DX009 (ip), vehicle: other) is reported as 102 % of control. For the same compound, the T/C (dose: 79.0 mg/kg/injection, schedule: Q01DX005 (ip), vehicle: other) was 108 % of control and 111 % of control, the T/C (dose: 100.0 mg/kg/injection, schedule: Q01DX009 (ip), vehicle: acid diluted with saline) was 110 % of control and the T/C (dose: 118.7 mg/kg/injection, schedule: Q01DX005 (ip), vehicle: other) was 109 % of control and 119 % of control. The T/C (dose: 178.0 mg/kg/injection, schedule: Q01DX005 (ip), vehicle: other) was 113 % of control, the T/C (dose: 200.0 mg/kg/injection, schedule: Q01DX009 (ip), vehicle: acid diluted with saline) was 155 % of control and the T/C (dose: 400.0 mg/kg/injection, schedule: Q01DX005 (ip), vehicle: other) was 198 % of control. The T/C (dose: 400.0 mg/kg/injection, schedule: Q01DX009 (ip), vehicle: acid diluted with saline) was 156 % of control.
For `NCCCNCCCCNC(=O)C(O)NC(=O)CC(O)CCCCN=C(N)N` (configuration not stated), the T/C (dose: 3.0 mg/kg/injection, schedule: Q01DX009 (ip), vehicle: saline) was 156 % of control, the T/C (dose: 6.0 mg/kg/injection, schedule: Q01DX009 (ip), vehicle: saline) was 168 % of control and the T/C (dose: 6.25 mg/kg/injection, schedule: Q01DX009 (ip), vehicle: saline) was 163 % of control. For the same compound, the T/C (dose: 12.0 mg/kg/injection, schedule: Q01DX009 (ip), vehicle: saline) was 196 % of control, the T/C (dose: 12.5 mg/kg/injection, schedule: Q01DX009 (ip), vehicle: saline) was 184 % of control and the T/C (dose: 25.0 mg/kg/injection, schedule: Q01DX009 (ip), vehicle: saline) was 208 % of control and 210 % of control. For the same compound, the T/C (dose: 50.0 mg/kg/injection, schedule: Q01DX009 (ip), vehicle: saline) was 198 % of control and 216 % of control and the T/C (dose: 100.0 mg/kg/injection, schedule: Q01DX009 (ip), vehicle: saline) was 220 % of control.
For `O=NN(CCCl)C(=O)NC1CC2CCC1C2` (configuration not stated), the T/C (dose: 3.75 mg/kg/injection, schedule: Q01DX Z (sc), vehicle: carboxymethylcellulose (CMC)) was 94 % of control, the T/C (dose: 7.5 mg/kg/injection, schedule: Q01DX Z (sc), vehicle: carboxymethylcellulose (CMC)) was 94 % of control and the T/C (dose: 15.0 mg/kg/injection, schedule: Q01DX Z (sc), vehicle: carboxymethylcellulose (CMC)) was 117 % of control. The T/C (dose: 30.0 mg/kg/injection, schedule: Q01DX Z (sc), vehicle: carboxymethylcellulose (CMC)) was 288 % of control and the T/C (dose: 60.0 mg/kg/injection, schedule: Q01DX Z (sc), vehicle: carboxymethylcellulose (CMC)) was 200 % of control.
In the case of `Nc1n[nH]c(N)n1`, the T/C (dose: 259.0 mg/kg/injection, schedule: Q01DX Z (sc), vehicle: water) is reported as 100 % of control, the T/C (dose: 432.0 mg/kg/injection, schedule: Q01DX Z (sc), vehicle: water) is reported as 113 % of control and the T/C (dose: 720.0 mg/kg/injection, schedule: Q01DX Z (sc), vehicle: water) is reported as 118 % of control. For the same compound, the T/C (dose: 1200.0 mg/kg/injection, schedule: Q01DX Z (sc), vehicle: water) was 122 % of control.
`CSC1SCC2C(=O)N(C)C(C(C)C)C(=O)OCC(NC(=O)c3cnc4ccccc4n3)C(=O)NC(C)C(=O)N(C)C1C(=O)N(C)C(C(C)C)C(=O)OCC(NC(=O)c1cnc3ccccc3n1)C(=O)NC(C)C(=O)N2C` (configuration not stated) was tested, and the T/C (dose: 7.5 micrograms/kg/injection, schedule: Q01DX009 (ip), vehicle: Klucel (hydroxypropylcellulose) (HPC)) was 98 % of control, the T/C (dose: 15.0 micrograms/kg/injection, schedule: Q01DX009 (ip), vehicle: Klucel (hydroxypropylcellulose) (HPC)) was 97 % of control and the T/C (dose: 30.0 micrograms/kg/injection, schedule: Q01DX009 (ip), vehicle: Klucel (hydroxypropylcellulose) (HPC)) was 96 % of control. The T/C (dose: 60.0 micrograms/kg/injection, schedule: Q01DX009 (ip), vehicle: Klucel (hydroxypropylcellulose) (HPC)) was 100 % of control and the T/C (dose: 120.0 micrograms/kg/injection, schedule: Q01DX009 (ip), vehicle: Klucel (hydroxypropylcellulose) (HPC)) was 102 % of control.
